In ChEMBL document CHEMBL5113492, “Design, synthesis, and biological evalution of bifunctional inhibitors against Hsp90-HDAC6 interplay” (Eur J Med Chem, 2022):
Activity calls are given as the source filed them. No cut-off for these calls is given here.

Tests used:
NCI-H1975 = assay: Antiproliferative activity against human NCI-H1975 cells assessed as growth inhibition incubated upto 72 hrs by CellTiter96 Aqueous One Solution Cell Proliferation assay; assay type: functional
[1] = biological target: Heat shock protein HSP 90-alpha (Homo sapiens, UniProt P07900); assay: Inhibition of His-tagged N-terminal recombinant HSP90alpha (unknown origin) expressed in Escherichia coli BL21 (DE3) incubated for 4 hrs by fluorescence polarization based microplate reader assay
[2] = biological target: T1, Protein deacetylase HDAC6 (Homo sapiens) (UniProt Q9UBN7); assay: Inhibition of HDAC6 in human NCI-H1975 cells assessed as increase in acetylation of alpha tubulin at 1 uM incubated for 24 hrs by western blot analysis; assay type: cell-based
T1 sequence (whole entry): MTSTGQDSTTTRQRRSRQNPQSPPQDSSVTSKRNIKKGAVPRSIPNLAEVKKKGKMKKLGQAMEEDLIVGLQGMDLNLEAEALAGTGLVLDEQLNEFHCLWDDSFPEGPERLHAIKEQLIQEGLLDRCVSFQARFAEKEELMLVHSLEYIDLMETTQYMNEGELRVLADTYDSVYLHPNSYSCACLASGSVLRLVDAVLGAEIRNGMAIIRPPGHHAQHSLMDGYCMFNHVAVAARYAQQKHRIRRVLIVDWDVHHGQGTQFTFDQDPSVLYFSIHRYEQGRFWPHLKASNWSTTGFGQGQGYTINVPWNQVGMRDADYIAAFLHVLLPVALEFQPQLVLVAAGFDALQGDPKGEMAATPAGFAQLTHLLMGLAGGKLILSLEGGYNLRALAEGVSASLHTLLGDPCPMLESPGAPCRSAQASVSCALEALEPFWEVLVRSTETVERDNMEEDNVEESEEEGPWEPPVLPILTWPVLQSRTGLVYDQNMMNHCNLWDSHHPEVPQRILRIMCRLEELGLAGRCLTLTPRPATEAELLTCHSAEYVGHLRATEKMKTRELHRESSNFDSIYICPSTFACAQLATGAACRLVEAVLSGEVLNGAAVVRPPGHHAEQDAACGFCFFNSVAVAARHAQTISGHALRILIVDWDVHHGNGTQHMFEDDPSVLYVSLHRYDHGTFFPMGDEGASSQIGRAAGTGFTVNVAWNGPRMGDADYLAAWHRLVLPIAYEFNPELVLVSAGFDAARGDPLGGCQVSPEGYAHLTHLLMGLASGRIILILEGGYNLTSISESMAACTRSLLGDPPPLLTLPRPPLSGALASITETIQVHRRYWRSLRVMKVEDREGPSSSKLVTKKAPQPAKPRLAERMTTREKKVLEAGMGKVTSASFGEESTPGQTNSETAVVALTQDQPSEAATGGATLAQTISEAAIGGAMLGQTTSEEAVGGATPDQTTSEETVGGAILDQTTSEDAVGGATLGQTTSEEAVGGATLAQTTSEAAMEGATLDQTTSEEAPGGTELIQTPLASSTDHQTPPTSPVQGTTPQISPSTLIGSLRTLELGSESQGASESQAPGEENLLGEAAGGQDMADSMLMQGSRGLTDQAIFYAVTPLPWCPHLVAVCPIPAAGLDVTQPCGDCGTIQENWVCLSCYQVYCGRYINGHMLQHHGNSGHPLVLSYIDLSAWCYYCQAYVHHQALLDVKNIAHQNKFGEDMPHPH

[3] = biological target: T2, Heat shock protein HSP90 (Homo sapiens) (UniProt P07900+P08238); assay: Inhibition of HSP90 in human NCI-H1975 cells assessed as downregulation of EGFR expression at 2 uM incubated for 24 hrs by western blot analysis; assay type: cell-based
[4] = biological target: T1, Protein deacetylase HDAC6 (Homo sapiens); assay: Inhibition of HDAC6 in human NCI-H1975 cells assessed as increase in acetylation of HSP90-Lys 294 residue at 2 uM incubated for 24 hrs by western blot analysis; assay type: cell-based
[5] = biological target: T2, Heat shock protein HSP90 (Homo sapiens); assay: Inhibition of HSP90 in human NCI-H1975 cells assessed as upregulation of HSP70 expression at 2 uM incubated for 24 hrs by western blot analysis; assay type: cell-based
[6] = biological target: T2, Heat shock protein HSP90 (Homo sapiens); assay: Inhibition of HSP90 in human NCI-H1975 cells assessed as downregulation of Met expression at 2 uM incubated for 24 hrs by western blot analysis; assay type: cell-based
[7] = biological target: T2, Heat shock protein HSP90 (Homo sapiens); assay: Inhibition of HSP90 in human NCI-H1975 cells assessed as downregulation of Her2 expression at 2 uM incubated for 24 hrs by western blot analysis; assay type: cell-based
[8] = biological target: T2, Heat shock protein HSP90 (Homo sapiens); assay: Inhibition of HSP90 in human NCI-H1975 cells assessed as downregulation of Akt expression at 2 uM incubated for 24 hrs by western blot analysis; assay type: cell-based

Row | GI50 (NCI-H1975) [µM] | IC50 [1] [µM] | SMILES | also measured
1 | 7 | 0.22 | CCN(Cc1ccc(C(=O)NO)cc1)C(=O)c1cc(C(C)C)c(O)cc1O | 
2 | 68.8 | 0.608 | CN(Cc1ccc(C(=O)NO)cc1)C(=O)c1cc(Cl)c(O)cc1O | 
3 | 3.5 |  | COC(=O)c1ccc(CN(C)C(=O)c2cc(C(C)C)c(O)cc2O)cc1 | inhibition [3]: Active; inhibition [4]: Active; inhibition [5]: Active; inhibition [6]: Active; inhibition [7]: Active; inhibition [8]: Active

Further lines, the compound ahead of its results:

Row | SMILES | GI50 (NCI-H1975) [µM] | IC50 [1] [µM] | also measured
4 | CCCN(Cc1ccc(C(=O)NO)cc1)C(=O)c1cc(C(C)C)c(O)cc1O | 23.7 | 0.648 | 
5 | CCCCN(Cc1ccc(C(=O)NO)cc1)C(=O)c1cc(Cl)c(O)cc1O | 66.4 | 0.632 | 
6 | COC1=C2C[C@@H](C)C[C@H](OC)[C@H](O)[C@@H](C)/C=C(\C)[C@H](OC(N)=O)[C@@H](OC)/C=C\C=C(/C)C(=O)NC(=CC1=O)C2=O |  |  | inhibition [2]: Active
7 | CCCN(Cc1ccc(C(=O)NO)cc1)C(=O)c1cc(Cl)c(O)cc1O | 73.6 | > 1 | 
8 | CN(Cc1ccc(C(=O)NO)cc1)C(=O)c1ccccc1 | 8.2 | > 1 | 
9 | CCN(Cc1ccc(C(=O)NO)cc1)C(=O)c1cc(Cl)c(O)cc1O | 13.2 | 0.693 | 
10 | CCCCN(Cc1ccc(C(=O)NO)cc1)C(=O)c1cc(C(C)C)c(O)cc1O | 23.6 | 0.367 | 
11 | CC(C)c1cc(C(=O)N(C)Cc2ccc(C(=O)O)cc2)c(O)cc1O | 30 |  | 
